From patent EP0640601B1, “BENZAMIDE DERIVATIVE” (HOKURIKU SEIYAKU CO., LTD., priority 1991, dated 1992) come the findings set out here.

Structures can show the parent of a compound that is named as a salt. Where two headings read alike, the source gives them in different places.

The subject of this assay is gastrointestinal motility. In words: Effects on gastrointestinal motility in conscious dog (force transducers implanted on stomach and colon, motor index). The class given is in vivo. To be noted: Canis lupus familiaris, iv, 20 min, about two hours after feeding, motor index for twenty minutes before and after administration; for change in vivo at 1 mg/kg: dose 1 mg/kg i.v.; for change in vivo at 0.1 mg/kg: dose 0.1 mg/kg i.v. How it is done: Under systemical anesthesia, force transducers were chronically implanted to the stomach and the colon of the adult male or female dogs in a direction to measure circular muscle contraction according to the method of Ito et al. (Japanese Journal of Smooth Muscle Research, 13, 33, 1976). A silicone tube chronically attached into jugular vein for intravenous administration of test compounds. After the animal was recovered from the operation, test compounds were administered at about two hours after feeding while gastrointestinal motility was measured. The gastrointestinal motility was indicated as motor index, and the effects of test compounds were estimated by the change of motor index for twenty minutes before and after the administration. […]

Where [1] appears, read: colon, read-out: Change of Motor Index (%) Colon.
Setting [2] is: stomach, read-out: Change of Motor Index (%) Stomach.

In the case of `CCOc1cc(N)c(Cl)cc1C(=O)NC1CC2CCCC(C1)N2CC(=O)O` (stereo not drawn) [Example 41, endo-[3-(4-Amino-5-chloro-2-ethoxybenzamido)-9-azabicyclo[3.3.1]non-9-yl]acetic acid hydrochloride], the change in vivo at 1 mg/kg was determined as 172% under setting [1] and 118% under setting [2].

Consider `CCOC(=O)CN1CCC(NC(=O)c2cc(Cl)c(N)cc2OC)CC1` [Example 46, Ethyl [4-(4-amino-5-chloro-2-methoxybenzamido)piperidino]acetate hydrochloride], for which the change in vivo at 1 mg/kg under setting [1] is 166% and the change in vivo at 1 mg/kg under setting [2] is 182%.

On to `CCOC(=O)CCN1[C@@H]2CCC[C@H]1C[C@@H](NC(=O)c1cc(Cl)c(N)cc1OC)C2` [Example 27, Ethyl endo-3-[3-(4-amino-5-chloro-2-methoxybenzamido)-9-azabicyclo[3.3.1]non-9-yl]propionate], for which the change in vivo at 0.1 mg/kg is, setting by setting: under setting [1], 134%; under setting [2], 113%.

`CCOC(=O)CCCCN1[C@@H]2CCC[C@H]1C[C@@H](NC(=O)c1cc(Cl)c(N)cc1OC)C2` [Example 28, Ethyl endo-5-[3-(4-amino-5-chloro-2-methoxybenzamido)-9-azabicyclo[3.3.1]non-9-yl]valerate]: the change in vivo at 1 mg/kg runs as follows: under setting [1], 164%; under setting [2], 142%.

With `CCOC(=O)CN1[C@@H]2CCC[C@H]1C[C@@H](NC(=O)c1cc(Cl)c(N)cc1OC)C2` [Example 23, Ethyl endo-[3-(4-amino-5-chloro-2-methoxybenzamido)-9-azabicyclo[3.3.1]non-9-yl]acetate], the change in vivo at 1 mg/kg by setting is: under setting [1], 133%; under setting [2], 134%.

For `CCOC(=O)CN1[C@@H]2CC[C@H]1C[C@@H](NC(=O)c1cc(Cl)c(N)cc1OC)C2` [Example 32, Ethyl endo-[3-(4-amino-5-chloro-2-methoxybenzamido)-8-azabicyclo[3.2.1]oct-8-yl]acetate], the change in vivo at 1 mg/kg is 158% under setting [1] and 177% under setting [2].

`COc1cc(N)c(Cl)cc1C(=O)N[C@H]1CCN(CC(=O)O)C[C@H]1OC` (relative stereo) [Example 64, cis-[4-(4-Amino-5-chloro-2-methoxybenzamido)-3-methoxypiperidino]acetic acid]: the change in vivo at 0.1 mg/kg reads like this: under setting [1], 234%; under setting [2], 200%.

For the compound `CCOC(=O)CCCN1[C@@H]2CCC[C@H]1C[C@@H](NC(=O)c1cc(Cl)c(N)cc1OC)C2` [Example 24, Ethyl endo-4-[3-(4-amino-5-chloro-2-methoxybenzamido)-9-azabicyclo[3.3.1]non-9-yl]butyrate], the change in vivo at 0.1 mg/kg under setting [1] came out at 135% and the change in vivo at 0.1 mg/kg under setting [2] was determined as 116%.

In the case of `COc1cc(N)c(Cl)cc1C(=O)N[C@H]1C[C@H]2CCC[C@@H](C1)N2CCCCC(=O)O` [Example 39, endo-5-[3-(4-Amino-5-chloro-2-methoxybenzamido)-9-azabicyclo[3.3.1]non-9-yl]valeric acid hydrochloride], the change in vivo at 0.1 mg/kg runs as follows: under setting [1], 159%; under setting [2], 135%.

Regarding `COc1cc(N)c(Cl)cc1C(=O)N[C@H]1C[C@H]2CCC[C@@H](C1)N2CCC(=O)O` [Example 38, endo-3-[3-(4-Amino-5-chloro-2-methoxybenzamido)-9-azabicyclo[3.3.1]non-9-yl]propionic acid hydrochloride], the change in vivo at 1 mg/kg runs as follows: under setting [1], 140%; under setting [2], 146%.

As for `COc1cc(N)c(Cl)cc1C(=O)NC1CCN(CC(=O)O)CC1` [Example 58, [4-[(4-Amino-5-chloro-2-methoxybenzamido)piperidino]acetic acid hydrochloride], the change in vivo at 0.1 mg/kg runs as follows: under setting [1], 218%; under setting [2], 181%.

With `COc1cc(N)c(Cl)cc1C(=O)N[C@H]1C[C@H]2CCC[C@@H](C1)N2CC(=O)O` [Example 34, endo-[3-(4-Amino-5-chloro-2-methoxybenzamido)-9-azabicyclo[3.3.1]non-9-yl]acetic acid hydrochloride], the change in vivo at 1 mg/kg under setting [1] is 192% and the change in vivo at 1 mg/kg under setting [2] was determined as 187%.

For the compound `COc1cc(N)c(Cl)cc1C(=O)NC1CC2CCC(C1)N2CC(=O)O` (stereo not drawn) [Example 43, endo-[3-(4-Amino-5-chloro-2-methoxybenzamido)-8-azabicyclo[3.2.1]oct-8-yl]acetic acid hydrochloride], the change in vivo at 1 mg/kg by setting is: under setting [1], 505%; under setting [2], 166%.

For `COc1cc(N)c(Cl)cc1C(=O)N[C@H]1C[C@H]2CCC[C@@H](C1)N2CCCCCC(=O)O` [Example 36, endo-6-[3-(4-Amino-5-chloro-2-methoxybenzamido)-9-azabicyclo[3.3.1]non-9-yl]hexanoic acid hydrochloride], the change in vivo at 1 mg/kg is, setting by setting: under setting [1], 120%; under setting [2], 196%.

Regarding `COc1cc(N)c(Cl)cc1C(=O)N[C@H]1C[C@H]2CCC[C@@H](C1)N2CCCC(=O)O` [Example 35, endo-4-[3-(4-Amino-5-chloro-2-methoxybenzamido)-9-azabicyclo[3.3.1]non-9-yl]butyric acid hydrochloride], the change in vivo at 1 mg/kg stood at 136% under setting [1] and 187% under setting [2].

As to `COc1cc(N)c(Cl)cc1C(=O)NC1CCN(C(C)C(=O)O)CC1` (stereo not drawn) [Example 63, 2-[4-(4-Amino-5-chloro-2-methoxybenzamido)piperidino]propionic acid], the change in vivo at 1 mg/kg came out at 157% under setting [1] and 130% under setting [2].

`CCOC(=O)CN1[C@@H]2CC[C@H]1C[C@H](NC(=O)c1cc(Cl)c(N)cc1OC)C2` [Example 33, Ethyl exo-[3-(4-amino-5-chloro-2-methoxybenzamido)-8-azabicyclo[3.2.1]oct-8-yl]acetate]: the change in vivo at 1 mg/kg runs as follows: under setting [1], 117%; under setting [2], 147%.

Turning to `CCOC(=O)CCCCCN1[C@@H]2CCC[C@H]1C[C@@H](NC(=O)c1cc(Cl)c(N)cc1OC)C2` [Example 25, Ethyl endo-6-[3-(4-amino-5-chloro-2-methoxybenzamido)-9-azabicyclo[3.3.1]non-9-yl]hexanoate], the change in vivo at 1 mg/kg came to 133% under setting [1] and 181% under setting [2].
